According to patent US20070116745A1, “Spermicidal preparations and uses thereof” (CONVE LTD., priority 2004, published 2007):

What was measured:
sperm = assay: Modified Sander-Cramer assay (complete sperm immobilization); format: cell-based; settings: solvent 0.9% NaCl pH 5, 30-second coincubation, n=6
Experimental: The above formulations were used in a series of (i) Sander-Cramer assays (assessment of complete sperm immobilization during a 30-second, compound-sperm coincubation); and (ii) cervical mucous (CM) penetration assays (compound is pre-incubated with a CM microcolumn for 30 minutes, after which sperm are introduced into the system; sperm migration through the mucous is compared to that of control).

[1] = Solubility in assay solvent (Table 1); format: physicochemical; settings: in 0.9% NaCl pH 5 at initial conc

Substance: nonoxynol-9
- HIGHEST SPERMICIDAL DILUTION (1/X) (sperm; initial conc 1 mg/ml): 8.0 ± 0.0 1/X
- M.E.C. (Minimum Effective Concentration) (sperm): 0.125 ± 0.000 mg/mL
- SOLUBILITY [1]: OK - clear
